TGI data for 14 compounds are collected here from PubChem BioAssay (NCI).

Some test systems named below: HT29 colon; SF-539 CNS; SN12C renal; UACC-62 melanoma; SF-268 CNS; U251 CNS; ACHN renal; NCI-H23 lung; SF-295 CNS; SK-MEL-5 melanoma; COLO 205 colon; EKVX NSCLC; UO-31 renal; SK-MEL-28 melanoma; UACC-257 melanoma; MALME-3M melanoma; NCI-H226 lung.
Test in all cases: NCI tumour cell line growth inhibition, 48 h

Each structure is given as a SMILES string.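 Growth conditions: 96-well plates. Treatment: test compound, 48 hours, 5 concentrations. Analysis: linear interpolation between bracketing concentrations; unreached endpoints set to highest concentration. The concentration for full growth arrest is given as TGI.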

On to `Cc1nc(N)c(-c2ccccc2)s1`, for which the TGI in the test on HT29 colon is over 100 µM; in the test on SF-539 CNS, over 100 µM; in the test with SN12C renal it was over 100 µM; in the test with UACC-62 melanoma it was over 100 µM; with SF-268 CNS, over 100 µM; with U251 CNS it was over 76.4 µM. In addition, the TGI is over 100 µM with ACHN renal; over 100 µM with NCI-H23 lung; 92.4 µM in the test on SF-295 CNS; over 100 µM in the test on SK-MEL-5 melanoma; over 66.7 µM in the test with COLO 205 colon; over 100 µM in the test on EKVX NSCLC. The TGI with UO-31 renal was over 100 µM; with SK-MEL-28 melanoma, over 100 µM; in the test on UACC-257 melanoma, over 96.1 µM; in the test with MALME-3M melanoma, over 100 µM; in the test on NCI-H226 lung, over 100 µM.

Take `CC(C)N(C(=O)C12C3C4C1C1C2C3C41I)C(C)C` (centres undefined): the TGI in the test on HT29 colon, in the test with SN12C renal, in the test on UACC-62 melanoma, in the test with SF-268 CNS, in the test with ACHN renal and in the test with NCI-H23 lung was over 100 µM each time. Further, the TGI in the test with SF-295 CNS, in the test with SK-MEL-5 melanoma, in the test with COLO 205 colon, in the test with EKVX NSCLC, in the test with UO-31 renal and with SK-MEL-28 melanoma was over 100 µM each time. Also, the TGI in the test with MALME-3M melanoma and with NCI-H226 lung was over 100 µM each time.

`COc1ccccc1-n1c(N)c2c(C)c(-c3ccccc3)[nH]c2nc1=S`: the TGI with SF-539 CNS, in the test on SN12C renal, in the test on UACC-62 melanoma, with U251 CNS, with ACHN renal and in the test on NCI-H23 lung was over 100 µM throughout. The TGI in the test on SK-MEL-5 melanoma, in the test with COLO 205 colon, with UO-31 renal, in the test on SK-MEL-28 melanoma, in the test on UACC-257 melanoma and in the test with MALME-3M melanoma was over 100 µM each time. This compound also displayed a TGI in the test with NCI-H226 lung of over 100 µM.

`O=C(Cc1ccc([N+](=O)[O-])c([N+](=O)[O-])c1CC(=O)C(=O)Nc1cc(Cl)ccc1Cl)C(=O)Nc1cc(Cl)ccc1Cl`: the TGI in the test on HT29 colon was over 100 µM; in the test on SF-539 CNS, over 100 µM; in the test with SN12C renal, over 100 µM; with UACC-62 melanoma it was over 100 µM; in the test on SF-268 CNS, over 100 µM; with U251 CNS, 70.1 µM. Moreover, the TGI with ACHN renal is over 100 µM; with NCI-H23 lung it was over 100 µM; with SF-295 CNS, over 100 µM; in the test on SK-MEL-5 melanoma, over 100 µM; in the test on COLO 205 colon, 52.5 µM; with EKVX NSCLC it was over 100 µM. Besides, the TGI with UO-31 renal, with SK-MEL-28 melanoma, in the test on UACC-257 melanoma, with MALME-3M melanoma and in the test with NCI-H226 lung was over 100 µM in each case.

With `CC/C(=N/O)c1ccc2[nH]c3c(C)cc([N+](=O)[O-])c(C)c3c2c1`, the TGI in the test with HT29 colon, with SF-539 CNS, in the test on SN12C renal, in the test on SF-268 CNS, in the test with ACHN renal and in the test with NCI-H23 lung was over 100 µM each time. Further, the TGI in the test on SF-295 CNS, in the test with SK-MEL-5 melanoma, in the test on COLO 205 colon, with EKVX NSCLC, with UO-31 renal and in the test with SK-MEL-28 melanoma was over 100 µM each time. The TGI with UACC-257 melanoma, with MALME-3M melanoma and in the test on NCI-H226 lung was over 100 µM each time.

Take `Cc1cc(C)c2c(c1)N[S@@](=O)S2`: the TGI in the test with HT29 colon amounted to 41.1 µM; in the test with SF-539 CNS, 50.5 µM; in the test with SN12C renal it was 36.7 µM; with UACC-62 melanoma it was 37.9 µM; with SF-268 CNS it was 34.5 µM; in the test on U251 CNS, 31.1 µM. In addition, the TGI with ACHN renal is 65.7 µM; in the test with NCI-H23 lung it was over 100 µM; with SF-295 CNS it was over 100 µM; with SK-MEL-5 melanoma it was 80.6 µM; in the test on COLO 205 colon it was 33.5 µM; in the test on EKVX NSCLC, over 100 µM. The TGI turned out to be 39.4 µM in the test with UO-31 renal; 95.1 µM with SK-MEL-28 melanoma; 35.7 µM in the test with UACC-257 melanoma; 58.1 µM in the test on MALME-3M melanoma; 38.5 µM with NCI-H226 lung.

Take `COc1cc(OC)c2c(=O)c3c([N+](=O)[O-])cccc3n(C)c2c1`: the TGI with HT29 colon, in the test with SF-539 CNS, with SN12C renal, in the test with UACC-62 melanoma, in the test with SF-268 CNS and with U251 CNS was over 100 µM in each case. The TGI in the test on ACHN renal, with NCI-H23 lung, with SF-295 CNS, in the test on SK-MEL-5 melanoma, in the test on COLO 205 colon and in the test with EKVX NSCLC was over 100 µM in each case. For the same compound, the TGI in the test on UO-31 renal, in the test on SK-MEL-28 melanoma, in the test with UACC-257 melanoma, in the test on MALME-3M melanoma and with NCI-H226 lung was over 100 µM each time.

On to `C/C(=N/NC(=O)C[n+]1ccccc1)C(CN(CC(C)C)CC(C)C)C(=O)Nc1ccc(C)cc1C` (centres undefined), for which the TGI in the test on HT29 colon, with SF-539 CNS, with SN12C renal, in the test on UACC-62 melanoma, with SF-268 CNS and in the test with ACHN renal was over 100 µM in each case. For the same compound, the TGI with NCI-H23 lung was over 100 µM; in the test with SK-MEL-5 melanoma it was over 100 µM; in the test on COLO 205 colon, over 100 µM; in the test with EKVX NSCLC, over 100 µM; in the test with UO-31 renal, 82.8 µM; in the test on SK-MEL-28 melanoma, over 100 µM. The TGI with UACC-257 melanoma and in the test on MALME-3M melanoma was over 100 µM each time.

As for `COc1cc2c(cc1O)CN1CCC23C=C[C@@H](O)CC13` (some centres undefined), the TGI in the test with HT29 colon, with SN12C renal, in the test with UACC-62 melanoma, in the test with SF-268 CNS, with U251 CNS and in the test with ACHN renal was over 100 µM in each case. The TGI with NCI-H23 lung is over 100 µM; in the test on SF-295 CNS it was over 100 µM; with SK-MEL-5 melanoma, over 100 µM; in the test with COLO 205 colon, 78.1 µM; in the test on EKVX NSCLC it was over 100 µM; with UO-31 renal it was over 100 µM. The TGI in the test with SK-MEL-28 melanoma, with UACC-257 melanoma, with MALME-3M melanoma and in the test with NCI-H226 lung was over 100 µM throughout.

As to `CC1(C)OCN(c2ccc(S(N)(=O)=O)cc2)Cn2c1nc1ccccc12`, the TGI in the test with HT29 colon, in the test on SF-539 CNS, in the test with SN12C renal, in the test on UACC-62 melanoma, in the test on SF-268 CNS and in the test on U251 CNS was over 100 µM in each case. In addition, the TGI in the test with ACHN renal, in the test with NCI-H23 lung, in the test on SF-295 CNS, with COLO 205 colon, in the test on EKVX NSCLC and with UO-31 renal was over 100 µM in each case. The TGI in the test with SK-MEL-28 melanoma, in the test with UACC-257 melanoma, in the test with MALME-3M melanoma and with NCI-H226 lung was over 100 µM throughout.

Turning to `CC12C(=C(C#N)C(=N)N1c1ccc(Cl)c(Cl)c1)C=C(O)CC2SCCS(=O)(=O)O` (centres undefined), the TGI with HT29 colon, in the test on SF-539 CNS, with SN12C renal, with UACC-62 melanoma, in the test on SF-268 CNS and with U251 CNS was over 100 µM each time. Also, the TGI in the test on ACHN renal, in the test on NCI-H23 lung, in the test on SF-295 CNS, in the test with SK-MEL-5 melanoma, in the test with COLO 205 colon and with EKVX NSCLC was over 100 µM each time. In addition, the TGI in the test with UO-31 renal, in the test on SK-MEL-28 melanoma, in the test on UACC-257 melanoma and with NCI-H226 lung was over 100 µM throughout.

Regarding `N#C/C(=C\c1cc(O)ccc1O)C(N)=O`, the TGI was over 100 µM in the test on HT29 colon; over 100 µM in the test on SF-539 CNS; over 100 µM in the test with SN12C renal; 88.1 µM with UACC-62 melanoma; over 100 µM with SF-268 CNS; over 100 µM in the test on U251 CNS. The TGI with ACHN renal, in the test with NCI-H23 lung, with SF-295 CNS, in the test on COLO 205 colon, in the test with EKVX NSCLC and in the test on UO-31 renal was over 100 µM throughout. The TGI with SK-MEL-28 melanoma is over 100 µM; with UACC-257 melanoma it was over 100 µM; with MALME-3M melanoma, over 100 µM; with NCI-H226 lung, 95.4 µM.

`Oc1cc(CN2CCOCCOCCOCCOCC2)c(O)cc1CN1CCOCCOCCOCCOCC1`: the TGI in the test with HT29 colon was over 73.3 µM; in the test with SF-539 CNS, over 100 µM; in the test on UACC-62 melanoma, over 72.2 µM; with SF-268 CNS it was 96.8 µM; in the test on U251 CNS, over 56.8 µM; with ACHN renal, over 59.2 µM. Moreover, the TGI is over 100 µM in the test on NCI-H23 lung; over 100 µM in the test on SF-295 CNS; over 100 µM in the test with SK-MEL-5 melanoma; 39.6 µM with COLO 205 colon; over 100 µM in the test on EKVX NSCLC; over 100 µM with UO-31 renal. Also, the TGI with SK-MEL-28 melanoma is 54.7 µM; with UACC-257 melanoma it was over 100 µM; with NCI-H226 lung, over 85 µM.

Regarding `CCCCNC(=NCc1ccccc1)NC#N`, the TGI in the test with HT29 colon, in the test with SF-539 CNS, in the test on SN12C renal, with UACC-62 melanoma, in the test with SF-268 CNS and in the test with U251 CNS was over 100 µM in each case. Also, the TGI in the test on ACHN renal, in the test on NCI-H23 lung, in the test with SF-295 CNS, in the test with SK-MEL-5 melanoma, in the test on COLO 205 colon and in the test with EKVX NSCLC was over 100 µM each time. Further, the TGI in the test with UO-31 renal, in the test with SK-MEL-28 melanoma, in the test on MALME-3M melanoma and in the test with NCI-H226 lung was over 100 µM each time.
